According to patent US20230085307A1, “PYRIDAZINONE COMPOUND AND HERBICIDE” (NISSAN CHEMICAL CORPORATION, priority 2019, published 2023):

Experiments:
late watergrass = experiment: Test Example 1: herbicidal activity, application before weed generation under submerged conditions (Table 16, symbol A); type: in vivo, late watergrass (Echinochloa oryzicola); conditions: 320 g/ha applied herbicide
Summary of the method: (§1)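 Emulsion formulation, water-diluted to set dose, was put onto the flooded surface (4 cm depth, alluvial soil) the same day weeds were sown and 2.5-leaf rice transplanted. After 3 weeks at 25-30 °C under glass, each species was rated 0 (≤5% kill) to 5 (≥90% kill).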

Japanese bulrush = experiment: Test Example 1: herbicidal activity, application before weed generation under submerged conditions (Table 16, symbol B); type: in vivo, Japanese bulrush (Schoenoplectus juncoides); conditions: 320 g/ha applied herbicide
Summary of the method: as §1

oval-leafed pondweed = experiment: Test Example 1: herbicidal activity, application before weed generation under submerged conditions (Table 16, symbol C); type: in vivo, oval-leafed pondweed (Monochoria vaginalis); conditions: 320 g/ha applied herbicide
Summary of the method: as §1

barnyard grass [1] = experiment: Test Example 3: herbicidal effect by foliage application, Wagner pot (Table 18, symbol H); type: in vivo, barnyard grass (Echinochloa crus-galli); conditions: amount of applied herbicide 320 g/ha
Summary of the method: (§2)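 Plants were sown in alluvial soil held under 0.1–0.5 cm standing water and grown 14 days in a greenhouse at 25–30 °C. An emulsifiable formulation, water-diluted to the set dose, was then sprayed onto the foliage, and effects were scored three weeks later using previously defined criteria.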

Chinese sprangletop = experiment: Test Example 3: herbicidal effect by foliage application, Wagner pot (Table 18, symbol D); type: in vivo, chinese sprangletop (Leptochloa chinensis); conditions: amount of applied herbicide 320 g/ha
Summary of the method: as §2

rice flat sedge = experiment: Test Example 3: herbicidal effect by foliage application, Wagner pot (Table 18, symbol E); type: in vivo, rice flat sedge (Cyperus iria); conditions: amount of applied herbicide 320 g/ha
Summary of the method: as §2

southern crabgrass [2] = experiment: Test Example 4: herbicidal effect by soil treatment (Table 19, symbol F); type: in vivo, southern crabgrass (Digitaria ciliaris); conditions: amount of applied herbicide 320 g/ha
Summary of the method: (§3)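 Three weeks of greenhouse growth at 25° C. to 30° C. followed a uniform surface spray of water-diluted emulsion at a predetermined herbicide amount. Seeds had been sown beforehand under about 1.5 cm of sterilized diluvial soil. Grading followed criteria set out in an earlier test.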

green foxtail [3] = experiment: Test Example 4: herbicidal effect by soil treatment (Table 19, symbol G); type: in vivo, green foxtail (Setaria viridis); conditions: amount of applied herbicide 320 g/ha
Summary of the method: as §3

barnyard grass [4] = experiment: Test Example 4: herbicidal effect by soil treatment (Table 19, symbol H); type: in vivo, barnyard grass (Echinochloa crus-galli); conditions: amount of applied herbicide 320 g/ha
Summary of the method: as §3

wild oat [5] = experiment: Test Example 4: herbicidal effect by soil treatment (Table 19, symbol I); type: in vivo, wild oat (Avena fatua); conditions: amount of applied herbicide 320 g/ha
Summary of the method: as §3

blackgrass [6] = experiment: Test Example 4: herbicidal effect by soil treatment (Table 19, symbol J); type: in vivo, blackgrass (Alopecurus myosuroides); conditions: amount of applied herbicide 320 g/ha
Summary of the method: as §3

Italian ryegrass [7] = experiment: Test Example 4: herbicidal effect by soil treatment (Table 19, symbol K); type: in vivo, Italian ryegrass (Lolium multiflorum); conditions: amount of applied herbicide 320 g/ha
Summary of the method: as §3

windgrass [8] = experiment: Test Example 4: herbicidal effect by soil treatment (Table 19, symbol L); type: in vivo, windgrass (Apera spica-venti); conditions: amount of applied herbicide 320 g/ha
Summary of the method: as §3

velvetleaf [9] = experiment: Test Example 4: herbicidal effect by soil treatment (Table 19, symbol M); type: in vivo, velvetleaf (Abutilon theophrasti); conditions: amount of applied herbicide 320 g/ha
Summary of the method: as §3

redroot pigweed [10] = experiment: Test Example 4: herbicidal effect by soil treatment (Table 19, symbol N); type: in vivo, redroot pigweed (Amaranthus retroflexus); conditions: amount of applied herbicide 320 g/ha
Summary of the method: as §3

lambsquarters [11] = experiment: Test Example 4: herbicidal effect by soil treatment (Table 19, symbol O); type: in vivo, lambsquarters (Chenopodium album); conditions: amount of applied herbicide 320 g/ha
Summary of the method: as §3

chickweed [12] = experiment: Test Example 4: herbicidal effect by soil treatment (Table 19, symbol P); type: in vivo, common chickweed (Stellaria media); conditions: amount of applied herbicide 320 g/ha
Summary of the method: as §3

persian speedwell [13] = experiment: Test Example 4: herbicidal effect by soil treatment (Table 19, symbol R); type: in vivo, Persian speedwell (Veronica persica); conditions: amount of applied herbicide 320 g/ha
Summary of the method: as §3

southern crabgrass [14] = experiment: Test Example 5: herbicidal effect by foliage application, plastic box (Table 20, symbol F); type: in vivo, southern crabgrass (Digitaria ciliaris); conditions: foliage application, 320 g/ha, evaluated three weeks after application
Summary of the method: (§4)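 Plants sown in sterilized diluvial soil and grown 14 days in a greenhouse at 25° C to 30° C, then sprayed on the foliage with the compound's emulsion diluted in water to a predetermined herbicide amount. Injury to weeds and crops scored three weeks after application on a visual rating scale.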

green foxtail [15] = experiment: Test Example 5: herbicidal effect by foliage application, plastic box (Table 20, symbol G); type: in vivo, green foxtail (Setaria viridis); conditions: foliage application, 320 g/ha, evaluated three weeks after application
Summary of the method: as §4

barnyard grass [16] = experiment: Test Example 5: herbicidal effect by foliage application, plastic box (Table 20, symbol H); type: in vivo, barnyard grass (Echinochloa crus-galli); conditions: foliage application, 320 g/ha, evaluated three weeks after application
Summary of the method: as §4

wild oat [17] = experiment: Test Example 5: herbicidal effect by foliage application, plastic box (Table 20, symbol I); type: in vivo, wild oat (Avena fatua); conditions: foliage application, 320 g/ha, evaluated three weeks after application
Summary of the method: as §4

blackgrass [18] = experiment: Test Example 5: herbicidal effect by foliage application, plastic box (Table 20, symbol J); type: in vivo, blackgrass (Alopecurus myosuroides); conditions: foliage application, 320 g/ha, evaluated three weeks after application
Summary of the method: as §4

Italian ryegrass [19] = experiment: Test Example 5: herbicidal effect by foliage application, plastic box (Table 20, symbol K); type: in vivo, Italian ryegrass (Lolium multiflorum); conditions: foliage application, 320 g/ha, evaluated three weeks after application
Summary of the method: as §4

windgrass [20] = experiment: Test Example 5: herbicidal effect by foliage application, plastic box (Table 20, symbol L); type: in vivo, windgrass (Apera spica-venti); conditions: foliage application, 320 g/ha, evaluated three weeks after application
Summary of the method: as §4

velvetleaf [21] = experiment: Test Example 5: herbicidal effect by foliage application, plastic box (Table 20, symbol M); type: in vivo, velvetleaf (Abutilon theophrasti); conditions: foliage application, 320 g/ha, evaluated three weeks after application
Summary of the method: as §4

redroot pigweed [22] = experiment: Test Example 5: herbicidal effect by foliage application, plastic box (Table 20, symbol N); type: in vivo, redroot pigweed (Amaranthus retroflexus); conditions: foliage application, 320 g/ha, evaluated three weeks after application
Summary of the method: as §4

lambsquarters [23] = experiment: Test Example 5: herbicidal effect by foliage application, plastic box (Table 20, symbol O); type: in vivo, lambsquarters (Chenopodium album); conditions: foliage application, 320 g/ha, evaluated three weeks after application
Summary of the method: as §4

chickweed [24] = experiment: Test Example 5: herbicidal effect by foliage application, plastic box (Table 20, symbol P); type: in vivo, common chickweed (Stellaria media); conditions: foliage application, 320 g/ha, evaluated three weeks after application
Summary of the method: as §4

persian speedwell [25] = experiment: Test Example 5: herbicidal effect by foliage application, plastic box (Table 20, symbol R); type: in vivo, Persian speedwell (Veronica persica); conditions: foliage application, 320 g/ha, evaluated three weeks after application
Summary of the method: as §4

| SMILES | Herbicidal effect on A: late watergrass (grade 0-5) (late watergrass) | Herbicidal effect on B: Japanese bulrush (grade 0-5) (Japanese bulrush) | Herbicidal effect on C: oval-leafed pondweed (grade 0-5) (oval-leafed pondweed) | herbicidal effect on H: barnyard grass (barnyard grass [1]) | herbicidal effect on D: Chinese sprangletop (Chinese sprangletop) | herbicidal effect on E: rice flat sedge (rice flat sedge) | herbicidal effect on F: southern crabgrass (southern crabgrass [2]) | herbicidal effect on G: green foxtail (green foxtail [3]) | herbicidal effect on H: barnyard grass (barnyard grass [4]) | herbicidal effect on I: wild oat (wild oat [5]) | herbicidal effect on J: blackgrass (blackgrass [6]) | herbicidal effect on K: Italian ryegrass (Italian ryegrass [7]) | herbicidal effect on L: windgrass (windgrass [8]) | herbicidal effect on M: velvetleaf (velvetleaf [9]) | herbicidal effect on N: redroot pigweed (redroot pigweed [10]) | herbicidal effect on O: lambsquarters (lambsquarters [11]) | herbicidal effect on P: chickweed (chickweed [12]) | herbicidal effect on R: persian speedwell (persian speedwell [13]) | herbicidal effect on F: southern crabgrass (criteria 0-5) (southern crabgrass [14]) | herbicidal effect on G: green foxtail (criteria 0-5) (green foxtail [15]) | further results |
| --- | --- | --- | --- | --- | --- | --- | --- | --- | --- | --- | --- | --- | --- | --- | --- | --- | --- | --- | --- | --- | --- |
| CCCC(=O)Oc1c(C)nn(C)c(=O)c1-c1c(-c2ccccc2C(F)(F)F)sc2ccc(F)cc12 [2-230] | 3 (Herbicidal rate of 40% or more and less than 70%) | 0 (Herbicidal rate of 5% or less (almost no effect)) | 0 (Herbicidal rate of 5% or less (almost no effect)) | 4 (Herbicidal rate of 70% or more and less than 90%) | 5 (Herbicidal rate of 90% or more (almost completely withered)) | 5 (Herbicidal rate of 90% or more (almost completely withered)) | 0 (Herbicidal rate of 5% or less (almost no effect)) | 0 (Herbicidal rate of 5% or less (almost no effect)) | 0 (Herbicidal rate of 5% or less (almost no effect)) | 0 (Herbicidal rate of 5% or less (almost no effect)) | 0 (Herbicidal rate of 5% or less (almost no effect)) | 2 (Herbicidal rate of 20% or more and less than 40%) | 0 (Herbicidal rate of 5% or less (almost no effect)) | 0 (Herbicidal rate of 5% or less (almost no effect)) | 0 (Herbicidal rate of 5% or less (almost no effect)) | 0 (Herbicidal rate of 5% or less (almost no effect)) | 3 (Herbicidal rate of 40% or more and less than 70%) | 0 (Herbicidal rate of 5% or less (almost no effect)) | 0 (Herbicidal rate of 5% or less (almost no effect)) | 3 (Herbicidal rate of 40% or more and less than 70%) | herbicidal effect on H: barnyard grass (criteria 0-5) (barnyard grass [16]): 2 (Herbicidal rate of 20% or more and less than 40%); herbicidal effect on I: wild oat (criteria 0-5) (wild oat [17]): 0 (Herbicidal rate of 5% or less (almost no effect)); herbicidal effect on J: blackgrass (criteria 0-5) (blackgrass [18]): 0 (Herbicidal rate of 5% or less (almost no effect)); herbicidal effect on K: Italian ryegrass (criteria 0-5) (Italian ryegrass [19]): 3 (Herbicidal rate of 40% or more and less than 70%); herbicidal effect on L: windgrass (criteria 0-5) (windgrass [20]): 3 (Herbicidal rate of 40% or more and less than 70%); herbicidal effect on M: velvetleaf (criteria 0-5) (velvetleaf [21]): 5 (Herbicidal rate of 90% or more (almost completely withered)); herbicidal effect on N: redroot pigweed (criteria 0-5) (redroot pigweed [22]): 5 (Herbicidal rate of 90% or more (almost completely withered)); herbicidal effect on O: lambsquarters (criteria 0-5) (lambsquarters [23]): 4 (Herbicidal rate of 70% or more and less than 90%); herbicidal effect on P: chickweed (criteria 0-5) (chickweed [24]): 5 (Herbicidal rate of 90% or more (almost completely withered)); herbicidal effect on R: persian speedwell (criteria 0-5) (persian speedwell [25]): 5 (Herbicidal rate of 90% or more (almost completely withered)) |
| Cc1nn(C)c(=O)c(-c2c(-c3cccc(OC(F)(F)F)c3)sc3ccc(F)cc23)c1O [2-236] | 3 (Herbicidal rate of 40% or more and less than 70%) | 3 (Herbicidal rate of 40% or more and less than 70%) | 2 (Herbicidal rate of 20% or more and less than 40%) | 4 (Herbicidal rate of 70% or more and less than 90%) | 3 (Herbicidal rate of 40% or more and less than 70%) | 5 (Herbicidal rate of 90% or more (almost completely withered)) | 0 (Herbicidal rate of 5% or less (almost no effect)) | 0 (Herbicidal rate of 5% or less (almost no effect)) | 0 (Herbicidal rate of 5% or less (almost no effect)) | 0 (Herbicidal rate of 5% or less (almost no effect)) | 0 (Herbicidal rate of 5% or less (almost no effect)) | 0 (Herbicidal rate of 5% or less (almost no effect)) | 0 (Herbicidal rate of 5% or less (almost no effect)) | 0 (Herbicidal rate of 5% or less (almost no effect)) | 2 (Herbicidal rate of 20% or more and less than 40%) | 1 (Herbicidal rate of 5% or more and less than 20%) | 0 (Herbicidal rate of 5% or less (almost no effect)) | 0 (Herbicidal rate of 5% or less (almost no effect)) | 0 (Herbicidal rate of 5% or less (almost no effect)) | 3 (Herbicidal rate of 40% or more and less than 70%) | herbicidal effect on H: barnyard grass (criteria 0-5) (barnyard grass [16]): 0 (Herbicidal rate of 5% or less (almost no effect)); herbicidal effect on I: wild oat (criteria 0-5) (wild oat [17]): 0 (Herbicidal rate of 5% or less (almost no effect)); herbicidal effect on J: blackgrass (criteria 0-5) (blackgrass [18]): 0 (Herbicidal rate of 5% or less (almost no effect)); herbicidal effect on K: Italian ryegrass (criteria 0-5) (Italian ryegrass [19]): 0 (Herbicidal rate of 5% or less (almost no effect)); herbicidal effect on L: windgrass (criteria 0-5) (windgrass [20]): 1 (Herbicidal rate of 5% or more and less than 20%); herbicidal effect on M: velvetleaf (criteria 0-5) (velvetleaf [21]): 1 (Herbicidal rate of 5% or more and less than 20%); herbicidal effect on N: redroot pigweed (criteria 0-5) (redroot pigweed [22]): 5 (Herbicidal rate of 90% or more (almost completely withered)); herbicidal effect on O: lambsquarters (criteria 0-5) (lambsquarters [23]): 2 (Herbicidal rate of 20% or more and less than 40%); herbicidal effect on P: chickweed (criteria 0-5) (chickweed [24]): 5 (Herbicidal rate of 90% or more (almost completely withered)); herbicidal effect on R: persian speedwell (criteria 0-5) (persian speedwell [25]): 3 (Herbicidal rate of 40% or more and less than 70%) |
